Consider 15 compounds from US20210198277A1, “AMINE-SUBSTITUTED ARYL OR HETEROARYL COMPOUNDS” (Epizyme, Inc., priority 2016, published 2021).

SMILES strings stand for the structures. Like-named read-outs stand apart in the source and are kept apart here. Some results are limits rather than exact numbers.

This assay concerns the target T1, EHMT1 (Homo sapiens, UniProt Q9H9B1).
T1 sequence (Q9H9B1 1-1298): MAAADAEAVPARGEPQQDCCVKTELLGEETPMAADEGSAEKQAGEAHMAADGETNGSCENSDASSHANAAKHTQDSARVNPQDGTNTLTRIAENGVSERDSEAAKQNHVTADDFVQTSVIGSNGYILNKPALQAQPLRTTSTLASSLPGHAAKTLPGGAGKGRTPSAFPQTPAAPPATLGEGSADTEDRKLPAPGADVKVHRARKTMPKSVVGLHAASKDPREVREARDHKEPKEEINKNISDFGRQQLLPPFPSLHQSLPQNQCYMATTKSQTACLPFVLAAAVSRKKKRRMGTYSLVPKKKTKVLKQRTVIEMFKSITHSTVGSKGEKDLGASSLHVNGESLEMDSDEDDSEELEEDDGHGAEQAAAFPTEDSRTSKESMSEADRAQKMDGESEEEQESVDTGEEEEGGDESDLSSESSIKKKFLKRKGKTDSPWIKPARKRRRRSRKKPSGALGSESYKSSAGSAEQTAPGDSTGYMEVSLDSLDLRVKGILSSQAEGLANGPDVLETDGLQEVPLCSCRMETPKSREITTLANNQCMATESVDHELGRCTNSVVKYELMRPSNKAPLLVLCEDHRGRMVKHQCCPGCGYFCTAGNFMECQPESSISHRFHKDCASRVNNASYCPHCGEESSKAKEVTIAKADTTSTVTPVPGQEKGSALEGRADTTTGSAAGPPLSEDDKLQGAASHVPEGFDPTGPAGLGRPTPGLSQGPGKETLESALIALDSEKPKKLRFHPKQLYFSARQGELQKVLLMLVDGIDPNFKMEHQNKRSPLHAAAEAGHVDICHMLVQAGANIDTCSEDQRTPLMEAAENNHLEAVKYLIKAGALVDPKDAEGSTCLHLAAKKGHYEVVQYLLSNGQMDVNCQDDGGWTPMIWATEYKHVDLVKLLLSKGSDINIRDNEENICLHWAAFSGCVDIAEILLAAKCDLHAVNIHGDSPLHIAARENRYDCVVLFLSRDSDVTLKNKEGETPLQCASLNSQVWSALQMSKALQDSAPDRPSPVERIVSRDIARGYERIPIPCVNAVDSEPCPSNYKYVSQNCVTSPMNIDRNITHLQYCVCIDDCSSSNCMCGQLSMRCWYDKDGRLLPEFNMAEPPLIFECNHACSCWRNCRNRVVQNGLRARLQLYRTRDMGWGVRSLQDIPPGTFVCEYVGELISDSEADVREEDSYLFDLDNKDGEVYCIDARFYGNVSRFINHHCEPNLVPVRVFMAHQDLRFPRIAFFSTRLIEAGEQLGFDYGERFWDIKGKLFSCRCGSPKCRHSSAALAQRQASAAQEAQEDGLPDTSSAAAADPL
In words: EHMT1 enzyme assay on peptide substrate (EHMT1 PEP). In kind it is biochemical. The following applies: read-out: EHMT1 PEP IC50.

With `CNc1nc(C2CCCCN2C)c2cc(OC)c(OCCCN3CCCC3)cc2n1` (stereo not drawn) [Compound 747], the 50% inhibitory concentration (IC50) – broadly, the point on the concentration scale where inhibition reaches its midpoint – (Table VI) fell in the range of 100 to 1000 nM.
Consider `CNC[C@@H](COc1cc(Nc2nccc(NC)n2)ccc1OC)OC` [Compound 1084], for which the half-maximal inhibitory concentration (IC50) (Table VII) was above 10000 nM.
With `CNCCNCc1cc(Nc2nccc(NC)n2)ccc1OC` [Compound 1076], the half-inhibitory concentration (IC50) (Table VII) lay within 100 to 1000 nM.
On to `COc1cc2c(C)nc(N3CCOCC3)nc2cc1OCCCN1CCCC1` [Compound 762], for which the IC50 (Table VI) was above 10000 nM.
On to `CNc1cc(C)nc(Nc2cnc(OC)c(CNCCN3CCCC3)c2)n1` [Compound 1063], for which, where the note is “Table VII”, the concentration for half-maximal inhibition (IC50) fell in the range of 100 to 1000 nM.
Take `CNc1ccnc(Nc2cnc(OC)c(ONCCN3CCCC3)c2)n1` [Compound 1064]: the IC50 (Table VII) was below 100 nM.
`CNc1ccnc(Nc2ccc(OC)c(OCC[C@H]3CCCN3)c2)n1` [Compound 1074]: the IC50 (Table VII) lay within 100 to 1000 nM.
Still for that read-out and setting: next, `CNc1cc(C)nc(Nc2ccc(OC)c(CNCCN3CC[C@@H](F)C3)c2)n1` [Compound 1094]: below 100 nM; `CNc1cc(C)nc(Nc2ccc(OC)c(COCCN3CCCC3)c2)n1` [Compound 1104]: below 100 nM.
Regarding `CNc1ccnc(Nc2ccc(OC)c(OC[C@H](CN3CCCC3)OC)c2)n1` [Compound 1082], the half-inhibitory concentration (IC50) (Table VII) fell in the range of 1000 to 10000 nM.
Consider `CNc1cc(C2CCOCC2)c2cc(OC)c(C#CCN3CCCC3)cc2n1` [Compound 1049], for which the concentration for half-maximal inhibition (IC50) (Table VII) is below 100 nM.
`CNc1ccnc(Nc2ccc(OC)c(OC[C@@H]3CNCCO3)c2)n1` [Compound 1072]: the half-maximal inhibitory concentration (IC50) (Table VII) is above 10000 nM.
As for `CNc1ccnc(Nc2ccc(OC)c(OCCC(C)NC)c2)n1` (stereo not drawn) [Compound 1073], under “Table VII”, the 50% inhibitory concentration (IC50) lay in the range of 100 to 1000 nM.
Turning to `COc1ccc(Nc2nc(C)cc(NC3CCCOC3)n2)cc1OCCCN1CCCC1` (stereo not drawn) [Compound 788], the half-maximal inhibitory concentration (IC50) (Table VI) is below 100 nM.
Consider `COc1cc2c(C)cc(N3CCOCC3)nc2cc1OCCCN1CCCC1` [Compound 761], for which, for the setting “Table VI”, the half-inhibitory concentration (IC50) fell in the range of 1000 to 10000 nM.
